According to PMC7939386 (The Journal of Biological Chemistry, 2021):

How the values were obtained:
KIF1A-406 [1] = target: T1, KIF1A-406 (Rattus norvegicus, UniProt F1M4A4); experiment: stopped-flow nucleotide-triggered half-site release of mADP, Michaelis-Menten fit; format: biochemical; details: one-head-bound complex with 3 μM Taxol-stabilized microtubules, mADP in tethered head; BRB80 (80 mM PIPES, 1 mM MgCl2, pH 6.9), 25 °C; fit ± 95% CI; read-out: Experimental
T1 construct: motor head and neck linker, residues 1-368, followed by 61 residues of Drosophila melanogaster KHC neck coil (printed 'residues 445-405', probably 345-405) for dimerization; C-terminal His6; E. coli-type bacterial expression; homodimer
T1 sequence (F1M4A4 1-368): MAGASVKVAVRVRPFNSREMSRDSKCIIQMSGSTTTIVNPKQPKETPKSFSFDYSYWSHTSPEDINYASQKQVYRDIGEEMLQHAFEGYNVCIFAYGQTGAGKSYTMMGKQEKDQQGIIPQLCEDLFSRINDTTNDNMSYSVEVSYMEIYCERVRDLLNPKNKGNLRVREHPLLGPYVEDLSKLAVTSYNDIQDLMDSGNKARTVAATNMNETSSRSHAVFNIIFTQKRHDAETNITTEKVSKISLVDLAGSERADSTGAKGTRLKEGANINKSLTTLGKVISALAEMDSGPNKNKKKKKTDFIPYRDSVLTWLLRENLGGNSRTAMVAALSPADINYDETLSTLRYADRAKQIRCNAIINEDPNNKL

KIF1A-560-GFP = target: T2, KIF1A-560-GFP (Rattus norvegicus, UniProt F1M4A4); experiment: single-molecule TIRF microtubule off-rate versus [ADP], hyperbolic fit; format: binding; details: motor bound to Taxol-stabilized microtubules; BRB80 (80 mM PIPES, pH 6.9), 25 °C; fit ± 95% CI; authors equate K0.5 with KD
T2 construct: motor head and neck linker, residues 1-368, followed by Drosophila melanogaster KHC neck coil and coil-1 (216 residues by b8; b50 says additional 216 residues), C-terminal GFP and His6; bacterial expression; homodimer
T2 sequence (F1M4A4 1-368): T1 sequence (F1M4A4 1-368)

KIF1A-406 [2] = target: T1, KIF1A-406; experiment: stopped-flow dissociation, ADP-bound motor flushed against […] mADP; format: binding; details: no microtubules; BRB80, pH 6.9, 25 °C; b26 prints the error as ± 0.005

| SMILES | Km (KIF1A-406 [1]) [µM] | Kd (KIF1A-560-GFP) [µM] | mADP dissociation rate constant (KIF1A-406 [2]) [s⁻¹] |
| --- | --- | --- | --- |
| Nc1ncnc2c1ncn2[C@@H]1O[C@H](COP(=O)(O)OP(=O)(O)OP(=O)(O)O)[C@@H](O)[C@H]1O [ATP] | 119 ± 21 |  |  |
| Nc1ncnc2c1ncn2[C@@H]1O[C@H](COP(=O)(O)OP(=O)(O)O)[C@@H](O)[C@H]1O [ADP] |  | 93 ± 204 | 0.26 ± 0.001 |
